Measurements: article PMC9276586 (Cellular and Molecular Life Sciences: CMLS, 2022)
Converted amounts (≈) assume the structure as drawn. Like-named read-outs stand apart in the source and are kept apart here. Peptide text beside a SMILES is read from it.

What was measured:
E. coli CFT073 = type: cell-based, Escherichia coli
Experimental: (§1) The following uropathogenic bacterial species were used for the in vitro experiments, E. coli CFT073; E. coli ESBL-producing (CCUG 55197); K. pneumoniae (ATCC 25955); K. pneumoniae multidrug resistant (MDR) (CCUG 58547); and P. aeruginosa (ATCC 27853). Clinical isolates were obtained from the Department of Clinical Microbiology, Karolinska University Hospital, Solna, Sweden. Bacteria were cultured aerobically overnight on blood agar plates at 37 °C. For each bacterial species, 20 clinical isolates were included. For further assessment of biofilm formation, the E. coli isolate #12 from a child with pyelonephritis was chosen. The isolate expresses both curli and cellulose, as well as type 1 fimbriae and produces biofilm as measured on microtiter plates One-step knockout of bcsA and csgBA were carried out using the methods as described previously. The following mutants were used: WE1 bcsA::Cm (deficient in cellulose production), WE11 csgBA::Cm (deficient in curli production), and WE16 csgBA bscA::Cm (deficient in both cellulose and curli production). E. coli CFT073 was used for all experiments where nothing else is stated.
(§2) MIC of CD4-PP was evaluated against the type strains and the 20 clinical bacterial isolates using a two-step micro-dilution assay adapted for testing AMPs. The concentrations of CD4-PP were prepared double strength with two-fold serial dilutions ranging from 50 to 0.78 µM in 50 µL of 10 mM Tris buffer in a U-bottom 96-well plate (Corning Incorporated).
(§3) Bacteria were grown to mid-log phase before diluting to a final concentration of 1 × 10^6 CFU/mL in 10 mM Tris buffer using a Densichek Plus (BioMérieux). To each well, 50 µL suspension was added and incubated at 37 °C for 1 h and the final concentrations of peptide tested were from 25 to 0.39 µM. […] The MIC was read spectrophotometrically at 595 nm. MIC was defined as the lowest concentration of CD4-PP which inhibits bacterial growth. The effects of salt ions on the antibacterial activities of CD4-PP were assessed against E. coli (ATCC 25922) and P. aeruginosa (ATCC 27853) type strains. […]

[1] = test system: E. coli ESBL strain (CCUG 55971); type: cell-based, Escherichia coli; settings: 10 mM Tris buffer, bacteria 1 × 10^6 CFU/mL, 1 h 37 °C, then TSB 16–18 h, read at 595 nm
Experimental: as §1, §2, §3

[2] = test system: Klebsiella pneumoniae (ATCC 25955); type: cell-based; settings: 10 mM Tris buffer, bacteria 1 × 10^6 CFU/mL, 1 h 37 °C, then TSB 16–18 h, read at 595 nm
Experimental: as §1, §2
(§4) Bacteria were grown to mid-log phase before diluting to a final concentration of 1 × 10^6 CFU/mL in 10 mM Tris buffer using a Densichek Plus (BioMérieux). To each well, 50 µL suspension was added and incubated at 37 °C for 1 h and the final concentrations of peptide tested were from 25 to 0.39 µM. […] The MIC was read spectrophotometrically at 595 nm. MIC was defined as the lowest concentration of CD4-PP which inhibits bacterial growth. The effects of salt ions on the antibacterial activities of CD4-PP were assessed against E. coli (ATCC 25922) and P. aeruginosa (ATCC 27853) type strains. The following salts were used: sodium chloride (NaCl), ammonium chloride (NH4Cl), calcium chloride (CaCl2), magnesium chloride (MgCl2) and ferric chloride (FeCl3). All salts were purchased from Merck.

[3] = test system: MDR K. pneumoniae (CCUG 58547); type: cell-based, Klebsiella pneumoniae; settings: 10 mM Tris buffer, bacteria 1 × 10^6 CFU/mL, 1 h 37 °C, then TSB 16–18 h, read at 595 nm
Experimental: as §1, with “The following mutants were used: WE1 bcsA::Cm (deficient in cellulose production), WE11 csgBA::Cm (deficient in curli production), and WE16 csgBA bscA::Cm (deficient in both cellulose and curli production). E. coli CFT073 was used for all experiments where nothing else is stated.” left out
MIC of CD4-PP was evaluated against the type strains and the 20 clinical bacterial isolates using a two-step micro-dilution assay adapted for testing AMPs. […]
Bacteria were grown to mid-log phase before diluting to a final concentration of 1 × 10^6 CFU/mL in 10 mM Tris buffer using a Densichek Plus (BioMérieux). […] The MIC was read spectrophotometrically at 595 nm. […] The effects of salt ions on the antibacterial activities of CD4-PP were assessed against E. coli (ATCC 25922) and P. aeruginosa (ATCC 27853) type strains. […]

aureolysin [4] = target: aureolysin (Staphylococcus aureus, UniProt P81177); assay: Proteolytic stability against aureolysin; type: in vitro ADME; settings: bacterial protease aureolysin; percentage of intact peptide at time points by LC–MS
Chain of aureolysin (Staphylococcus aureus, UniProt P81177) (P81177 209-509): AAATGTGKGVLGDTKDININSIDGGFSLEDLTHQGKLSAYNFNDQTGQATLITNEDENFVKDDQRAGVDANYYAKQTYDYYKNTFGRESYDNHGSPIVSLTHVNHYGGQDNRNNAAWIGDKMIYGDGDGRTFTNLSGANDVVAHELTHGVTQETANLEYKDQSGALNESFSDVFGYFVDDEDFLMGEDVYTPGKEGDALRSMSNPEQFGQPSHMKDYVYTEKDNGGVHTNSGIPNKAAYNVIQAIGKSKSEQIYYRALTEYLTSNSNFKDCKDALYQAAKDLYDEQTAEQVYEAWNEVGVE
Experimental: A major limitation of AMPs as potential drug candidates is due to their inherent proteolytic instability, and endogenous AMPs are readily degraded by both host- and pathogen-proteases. […] Therefore, the stability of CD4-PP was tested against this enzyme. The percentage of the intact peptide at different time points was monitored using LC–MS, and compared to LL-37 as a control. […] In contrast, CD4-PP is stable for up to 6 h (Supplementary Fig. S2).
[picture] Supplementary Figure S2.

[5] = test system: Pseudomonas aeruginosa (ATCC 27853); type: cell-based
Experimental: as §1, §2, §4

aureolysin [6] = assay: bacterial protease aureolysin; settings: up to 6 h
[7] = stated in SEM method, bacteria at 10^8 CFU/mL in 10 mM Tris buffer

**Q.** Which results are given for `CC[C@H](C)[C@@H]1NC(=O)[C@H](CCCNC(=N)N)NC(=O)[C@H](CCCCN)NC(=O)[C@H](C(C)C)NC(=O)[C@H]([C@@H](C)CC)NC(=O)[C@H](CCCNC(=N)N)NC(=O)[C@H](CCCCN)NC(=O)CNC(=O)CNC(=O)[C@@H]2CCCN2C(=O)[C@H](CS)NC(=O)[C@H](CCCNC(=N)N)NC(=O)[C@H](CC(C)C)NC(=O)[C@H](Cc2ccccc2)NC(=O)[C@H](C)NC(=O)[C@H](CCCCN)NC(=O)[C@H]([C@@H](C)CC)NC(=O)[C@H](CCCNC(=N)N)NC(=O)[C@H](CCCCN)NC(=O)[C@H](C(C)C)NC(=O)[C@H]([C@@H](C)CC)NC(=O)[C@H](CCCNC(=N)N)NC(=O)[C@H](CCCCN)NC(=O)CNC(=O)CNC(=O)[C@@H]2CCCN2C(=O)CNC(=O)[C@H](CCCNC(=N)N)NC(=O)[C@H](CC(C)C)NC(=O)[C@H](Cc2ccccc2)NC(=O)[C@H](C)NC(=O)[C@H](CCCCN)NC1=O` [CD4-PP] (cyclo(AFLRCPGGKRIVKRIKAFLRGPGGKRIVKRIK))?
**A.** MIC (E. coli CFT073; CFT073, 1 h): 0.78 µM (≈ 2.81 µg/mL); MIC [1]: 0.78 µM (≈ 2.81 µg/mL); MIC [2]: 1.56 µM (≈ 5.62 µg/mL); MIC [3]: 1.56 µM (≈ 5.62 µg/mL); time for which the peptide is stable with aureolysin (aureolysin [4]): up to 6 h

**Q.** `CC[C@H](C)[C@H](NC(=O)[C@H](CCCCN)NC(=O)[C@H](CCC(=O)O)NC(=O)[C@H](CCCCN)NC(=O)[C@H](CO)NC(=O)[C@H](CCCCN)NC(=O)[C@H](CCCNC(=N)N)NC(=O)[C@H](Cc1ccccc1)NC(=O)[C@H](Cc1ccccc1)NC(=O)[C@H](CC(=O)O)NC(=O)CNC(=O)[C@H](CC(C)C)NC(=O)[C@@H](N)CC(C)C)C(=O)NCC(=O)N[C@@H](CCCCN)C(=O)N[C@@H](CCC(=O)O)C(=O)N[C@@H](Cc1ccccc1)C(=O)N[C@@H](CCCCN)C(=O)N[C@@H](CCCNC(=N)N)C(=O)N[C@H](C(=O)N[C@H](C(=O)N[C@@H](CCC(N)=O)C(=O)N[C@@H](CCCNC(=N)N)C(=O)N[C@H](C(=O)N[C@@H](CCCCN)C(=O)N[C@@H](CC(=O)O)C(=O)N[C@@H](Cc1ccccc1)C(=O)N[C@@H](CC(C)C)C(=O)N[C@@H](CCCNC(=N)N)C(=O)N[C@@H](CC(N)=O)C(=O)N[C@@H](CC(C)C)C(=O)N[C@H](C(=O)N1CCC[C@H]1C(=O)N[C@@H](CCCNC(=N)N)C(=O)N[C@H](C(=O)N[C@@H](CCC(=O)O)C(=O)N[C@@H](CO)C(=O)O)[C@@H](C)O)C(C)C)[C@@H](C)CC)C(C)C)[C@@H](C)CC` [LL-37] was tested. Which “MIC (reference concentration used for SEM)” value (E. coli CFT073; [7]) did it give?
**A.** 15.62 µM

**Q.** And the MIC ([5]; CaCl2 2.5 mM)?
**A.** >10 µM

**Q.** What about the MIC ([5]; FeCl3 4 µM) of the same molecule?
**A.** 2.5 µM (≈ 11.2 µg/mL)

**Q.** What about the MIC ([5]; MgCl2 1 mM) of the same molecule?
**A.** 5 µM (≈ 22.5 µg/mL)

**Q.** What about the MIC ([5]; NH4Cl 6 µM) of the same molecule?
**A.** 1.25 µM (≈ 5.62 µg/mL)

**Q.** And the MIC ([5]; NaCl 150mM)?
**A.** 5 µM (≈ 22.5 µg/mL)

**Q.** What about the MIC ([5]; salt series: Tris-buffer 10mM, no added salt) of the same molecule?
**A.** 1.25 µM

**Q.** What about the “MIC (reference concentration used for SEM)” value [5, 7] of the same molecule?
**A.** 15.62 µM

**Q.** What about the “degradation by aureolysin (in words)” value (aureolysin [4]) of the same molecule?
**A.** rapidly degraded within minutes

**Q.** Which not cleaved (aureolysin [6]) does the source give for CPGGKRIVKRIKAFLRGPGGKRIVKRIKAFLR here?
**A.** stable for up to 6 h

**Q.** With LLGDFFRKSKEKIGKEFKRIVQRIKDFLRNLVPRTES as the molecule, how does the cleaved bond (aureolysin [6]) read?
**A.** L31-V32
